Reference: paper PMC7367283, “A PIP2 substitute mediates voltage sensor-pore coupling in KCNQ activation” (Communications Biology, 2020)
Values joined by “and” are separate entries in the source; they are usually repeats but may differ in a detail not shown here. Identical values can stand only once.

Biological target: IKs (KCNQ1 + KCNE1) (Homo sapiens, UniProt P51787)
Experiment: Two-electrode voltage clamp of IKs channels expressed in Xenopus oocytes
Type: cell-based
Design: key to G/Gcontrol(max): conductance / max control conductance (control max = 1)
Settings: for Current: Fig. 4g; for ∆V1/2 of activation induced by CP1 (mean): Fig. 4i dose response; for G/Gcontrol(max): Fig. 4h
From the text: Our previous studies have shown that the VSD of KCNQ1 activates to an intermediate state (I state) and an activated state (A state) upon membrane depolarization, and the pore can open when VSD is at either the intermediate (IO state) or activated (AO state)[23],[24]. The association of the auxiliary subunit KCNE1 with KCNQ1 affects VSD-pore coupling to suppress the IO state and enhance the AO state. Correspondingly, the association of KCNE1 also increases the PIP2 sensitivity of the channel[24],[37]. […] The most prominent effect of CP1 is to dramatically slow the deactivation of IKs, such that at 2 µM CP1, it took a 100-s interval at −120 mV for all the channels to deactivate from their previous activation (Fig. 4a). The application of 2 µM CP1 shifted the G–V relation to more negative voltages by ~13 mV (Fig. 4b). […] A fraction of the constitutively open channels might have been open during the previous test pulses and not deactivated during the shorter and less-hyperpolarized interval pulse to cause a current accumulation. […] In higher concentrations of CP1, we were not able to suppress the constitutive opening of KCNQ1 channels even with long and negative interval voltages, so that we used 20-s and −80-mV interval pulses in the recordings (Fig. 4e). […] In comparison with KCNQ1 expressed alone, CP1 caused a larger shift of the G–V relationship when KCNE1 was co-expressed (Fig. 4i). Since the IKs currents were difficult to measure accurately at high CP1 concentrations, we were unable to determine the EC50 of the channel response to CP1.
Fig. 4 Effects of CP1 on IKs channels. a, b IKs currents in the absence (left) and presence of 2 µM CP1 (right) recorded with 100-s and −120-mV interval pulses between testing voltages. Holding potential: −80 mV; testing potential: −120 to +80 mV; returning potential: −40 mV (a). G–V relations (b). c, d IKs recorded at the same conditions as in (a), except for the interval pulses, was 20 s at −80 mV. e, f IKs in the absence or presence of 10 µM CP1. The voltage protocol was the same as in (b). g, h Current (g) and relative conductance (h) increases of IKs channels by 10 µM CP1. In h, the measured conductance in CP1 at all voltages was divided by the maximum measured conductance in control, and then normalized with the maximum measured conductance in control being 1. i Dose response for ΔV1/2 of G–V relations to different CP1 concentrations as compared with those of KCNQ1 (dashed line).
The use of Xenopus laevis to obtain oocytes was approved by the Washington University Animal Studies Committee (protocol #20190030). Oocytes were manually dispersed and digested with collagenase (0.5 mg/ml, Sigma-Aldrich, Saint Louis, MO) to remove the follicle cell layer. Stage V or VI oocytes were selected and injected with cRNAs (9.2 ng) of channel or mutations. Especially, to characterize IKs, a mix of cRNAs at a molar ratio 4:1 (KCNQ1:KCNE1) was injected. For KCNQ2/KCNQ3, the molar ratio was 1:1 (KCNQ2:KCNQ3). For sodium channels, a 3:1 molar ratio (β1:NaV1.5) and for calcium channels a weight ratio 1:1:1 (β1:α2/δ1:CaV1.2) was injected, respectively. Injected oocytes were incubated in ND96 solution containing (in mM) 96 NaCl, 2 KCl, 1.8 CaCl2, 1 MgCl2, and 5 HEPES, pH 7.6, supplemented with 2.5 mM Na pyruvate and 1% penicillin–streptomycin, at 18 °C for 3–7 days before recording.
The whole-oocyte ionic currents were recorded with a GeneClamp 500B amplifier (Axon Instruments, CA) or iTEV90 amplifier (HEKA, Germany) and then sampled at 1 kHz and low-pass-filtered at 2 kHz. The Patchmaster software (HEKA, Germany) was used to acquire data. The Kir1.1 current was recorded with a high K^+ bath solution containing (in mM) 96 KCl, 4 NaCl, 1 CaCl2, 2 MgCl2, and 10 HEPES, pH 7.3–7.4. The HCN4 current was recorded in ND66 solution containing (in mM) 66 NaCl, 32 KCl, 1.8 CaCl2, 1 MgCl2, and 5 HEPES, pH 7.6. All the other potassium channels were recorded in ND96 solution. […]

For `O=S(=O)([O-])Oc1c(-c2sc3c(ccc4cccc(Cl)c43)c2OS(=O)(=O)[O-])[nH]c2ccc(Br)cc12.[Na+].[Na+]` [CP1, DISODIUM 5-BROMO-2-[9-CHLORO-3-(SULFONATOOXY) NAPHTHO [1,2-B] THIEN-2-YL]-1H-INDOL-3-YL SULFATE], the “shift of G–V relation” value (2 µM CP1, 20-s and −80-mV interval pulses) was ~ 12 mV, the “shift of G–V relation to more negative voltages” value (2 µM CP1, 100-s and −120-mV interval pulses) was ~ 13 mV and the “outward current (Icp1/Ictrl)” value (10 µM CP1, Q1/E1, at +40 mV, individual oocytes) was 3.3641 and 3.7408 and 2.3715 and 2.9989 and 4.6393. For the same compound, the “∆V1/2” value (10 µM CP1, Q1/E1, individual oocytes) was 64.6738 mV and 84.3167 mV and 109.16 mV and 34.9084 mV and 123.145 mV, the “τ deact at -120 mV” value (10 µM CP1 treated, Q1/E1, individual oocytes) was 3.5736 s and 3.9322 s and 2.999 s and 3.0124 s and 2.7649 s and 3.45 s and 3.7957 s and the “G/Gmax Mean” value (Fig. 4b, 2 µM CP1, 0 mV) was 0.3833. The “G/Gmax Mean” value (Fig. 4b, 2 µM CP1, 20 mV) was 0.7035, the “G/Gmax Mean” value (Fig. 4b, 2 µM CP1, 40 mV) was 0.9619 and the “G/Gmax Mean” value (Fig. 4b, 2 µM CP1, 60 mV) was 1.0000. The “G/Gmax Mean” value (Fig. 4b, 2 µM CP1, -20 mV) was 0.1567, the “G/Gmax Mean” value (Fig. 4b, 2 µM CP1, -40 mV) was 0.0500 and the “G/Gmax Mean” value (Fig. 4b, 2 µM CP1, -60 mV) was 0.0188. For the same compound, the “G/Gmax Mean” value (Fig. 4b, 2 µM CP1, -80 mV) was 0.0090, the “G/Gmax Mean” value (Fig. 4b, 2 µM CP1, -100 mV) was 0.0050 and the “G/Gmax Mean” value (Fig. 4b, 2 µM CP1, -120 mV) was 0.0140. For the same compound, the “G/Gmax Mean” value (Fig. 4f, 10 µM CP1, 0 mV) was 0.9498, the “G/Gmax Mean” value (Fig. 4f, 10 µM CP1, 10 mV) was 0.9622 and the “G/Gmax Mean” value (Fig. 4f, 10 µM CP1, 20 mV) was 0.9768. For the same compound, the “G/Gmax Mean” value (Fig. 4f, 10 µM CP1, 30 mV) was 0.9888, the “G/Gmax Mean” value (Fig. 4f, 10 µM CP1, 40 mV) was 0.9959 and the “G/Gmax Mean” value (Fig. 4f, 10 µM CP1, 50 mV) was 1.0000. The “G/Gmax Mean” value (Fig. 4f, 10 µM CP1, 60 mV) was 0.9995, the “G/Gmax Mean” value (Fig. 4f, 10 µM CP1, 70 mV) was 0.9975 and the “G/Gmax Mean” value (Fig. 4f, 10 µM CP1, 80 mV) was 0.9882. The “G/Gmax Mean” value (Fig. 4f, 10 µM CP1, -10 mV) was 0.9293, the “G/Gmax Mean” value (Fig. 4f, 10 µM CP1, -20 mV) was 0.9108 and the “G/Gmax Mean” value (Fig. 4f, 10 µM CP1, -30 mV) was 0.8947. The “G/Gmax Mean” value (Fig. 4f, 10 µM CP1, -40 mV) was 0.8796, the “G/Gmax Mean” value (Fig. 4f, 10 µM CP1, -50 mV) was 0.8652 and the “G/Gmax Mean” value (Fig. 4f, 10 µM CP1, -60 mV) was 0.8490. For the same compound, the “G/Gmax Mean” value (Fig. 4f, 10 µM CP1, -70 mV) was 0.8309, the “G/Gmax Mean” value (Fig. 4f, 10 µM CP1, -80 mV) was 0.8109 and the “G/Gmax Mean” value (Fig. 4f, 10 µM CP1, -90 mV) was 0.7850. For the same compound, the “G/Gmax Mean” value (Fig. 4f, 10 µM CP1, -100 mV) was 0.7801, the “G/Gmax Mean” value (Fig. 4f, 10 µM CP1, -110 mV) was 0.7703 and the “G/Gmax Mean” value (Fig. 4f, 10 µM CP1, -120 mV) was 0.7614. For the same compound, the Current (10 µM CP1, 0 mV) was 11.3690 µA, the Current (10 µM CP1, 10 mV) was 13.1145 µA and the Current (10 µM CP1, 20 mV) was 14.8276 µA. It also gave a Current (10 µM CP1, 30 mV) of 16.4399 µA, a Current (10 µM CP1, 40 mV) of 17.8196 µA and a Current (10 µM CP1, 50 mV) of 18.8339 µA. For the same compound, the Current (10 µM CP1, 60 mV) was 19.4658 µA, the Current (10 µM CP1, 70 mV) was 19.7856 µA and the Current (10 µM CP1, 80 mV) was 19.9691 µA. It also gave a Current (10 µM CP1, -10 mV) of 9.6451 µA, a Current (10 µM CP1, -20 mV) of 8.0042 µA and a Current (10 µM CP1, -30 mV) of 6.4510 µA. It also gave a Current (10 µM CP1, -40 mV) of 5.0169 µA, a Current (10 µM CP1, -50 mV) of 3.6974 µA and a Current (10 µM CP1, -60 mV) of 2.5078 µA. The Current (10 µM CP1, -70 mV) was 1.4333 µA, the Current (10 µM CP1, -80 mV) was 0.5290 µA and the Current (10 µM CP1, -90 mV) was -0.3014 µA. For the same compound, the Current (10 µM CP1, -100 mV) was -0.9865 µA, the Current (10 µM CP1, -110 mV) was -1.5545 µA and the Current (10 µM CP1, -120 mV) was -2.0910 µA. The “∆V1/2 of activation induced by CP1 (mean)” value (from here on “∆V1/2 of activation induced”) ([CP1] 1 µM) was 14.4504 mV, the “∆V1/2 of activation induced” value ([CP1] 2 µM) was 15.8525 mV and the “∆V1/2 of activation induced” value ([CP1] 3 µM) was 21.4391 mV. The “∆V1/2 of activation induced” value ([CP1] 5 µM) was 41.6182 mV, the “∆V1/2 of activation induced” value ([CP1] 6 µM) was 46.8783 mV and the “∆V1/2 of activation induced” value ([CP1] 10 µM) was 97.2701 mV. The “∆V1/2 of activation induced” value ([CP1] 15 µM) was 120.8217 mV, the “∆V1/2 of activation induced” value ([CP1] 20 µM) was 143.8484 mV and the “∆V1/2 of activation induced” value ([CP1] 25 µM) was 174.0381 mV. For the same compound, the “G/Gcontrol(max)” value (10 µM CP1, 0 mV) was 2.2457, the “G/Gcontrol(max)” value (10 µM CP1, 10 mV) was 2.2822 and the “G/Gcontrol(max)” value (10 µM CP1, 20 mV) was 2.3257. For the same compound, the “G/Gcontrol(max)” value (10 µM CP1, 30 mV) was 2.3635, the “G/Gcontrol(max)” value (10 µM CP1, 40 mV) was 2.3895 and the “G/Gcontrol(max)” value (10 µM CP1, 50 mV) was 2.4063. For the same compound, the “G/Gcontrol(max)” value (10 µM CP1, 60 mV) was 2.4120, the “G/Gcontrol(max)” value (10 µM CP1, 70 mV) was 2.4121 and the “G/Gcontrol(max)” value (10 µM CP1, 80 mV) was 2.3902. For the same compound, the “G/Gcontrol(max)” value (10 µM CP1, -10 mV) was 2.1869, the “G/Gcontrol(max)” value (10 µM CP1, -20 mV) was 2.1346 and the “G/Gcontrol(max)” value (10 µM CP1, -30 mV) was 2.0892. The “G/Gcontrol(max)” value (10 µM CP1, -40 mV) was 2.0471, the “G/Gcontrol(max)” value (10 µM CP1, -50 mV) was 2.0074 and the “G/Gcontrol(max)” value (10 µM CP1, -60 mV) was 1.9645. The “G/Gcontrol(max)” value (10 µM CP1, -70 mV) was 1.9185, the “G/Gcontrol(max)” value (10 µM CP1, -80 mV) was 1.8692 and the “G/Gcontrol(max)” value (10 µM CP1, -90 mV) was 1.8061. For the same compound, the “G/Gcontrol(max)” value (10 µM CP1, -100 mV) was 1.7954, the “G/Gcontrol(max)” value (10 µM CP1, -110 mV) was 1.7738 and the “G/Gcontrol(max)” value (10 µM CP1, -120 mV) was 1.7540. For the same compound, the “G/Gmax Mean” value (Fig. 4d, 2 µM CP1, 0 mV) was 0.2264, the “G/Gmax Mean” value (Fig. 4d, 2 µM CP1, 20 mV) was 0.4604 and the “G/Gmax Mean” value (Fig. 4d, 2 µM CP1, 40 mV) was 0.7375. For the same compound, the “G/Gmax Mean” value (Fig. 4d, 2 µM CP1, 60 mV) was 0.9406, the “G/Gmax Mean” value (Fig. 4d, 2 µM CP1, 80 mV) was 1.0000 and the “G/Gmax Mean” value (Fig. 4d, 2 µM CP1, -20 mV) was 0.0874. For the same compound, the “G/Gmax Mean” value (Fig. 4d, 2 µM CP1, -40 mV) was 0.0291, the “G/Gmax Mean” value (Fig. 4d, 2 µM CP1, -60 mV) was 0.0147 and the “G/Gmax Mean” value (Fig. 4d, 2 µM CP1, -80 mV) was 0.0247. For the same compound, the “G/Gmax Mean” value (Fig. 4d, 2 µM CP1, -100 mV) was 0.0692.
